Legend:
recombinant USP1 protein = biological target: T1, recombinant USP1 protein (Homo sapiens, UniProt O94782, DEL125-138/DEL229-408/DEL608-737); assay: Binding affinity to recombinant USP1 protein by differential scanning fluorimetry; settings: compound 100 µM; 0.03 mg/mL USP1 (Δ1-66, Δ125-138, Δ229-408, Δ608-737); Tm with compound minus Tm with DMSO; read-out: ΔTm (°C)
T1 sequence (O94782 with tags, fused parts or gaps DEL125-138/DEL229-408/DEL608-737): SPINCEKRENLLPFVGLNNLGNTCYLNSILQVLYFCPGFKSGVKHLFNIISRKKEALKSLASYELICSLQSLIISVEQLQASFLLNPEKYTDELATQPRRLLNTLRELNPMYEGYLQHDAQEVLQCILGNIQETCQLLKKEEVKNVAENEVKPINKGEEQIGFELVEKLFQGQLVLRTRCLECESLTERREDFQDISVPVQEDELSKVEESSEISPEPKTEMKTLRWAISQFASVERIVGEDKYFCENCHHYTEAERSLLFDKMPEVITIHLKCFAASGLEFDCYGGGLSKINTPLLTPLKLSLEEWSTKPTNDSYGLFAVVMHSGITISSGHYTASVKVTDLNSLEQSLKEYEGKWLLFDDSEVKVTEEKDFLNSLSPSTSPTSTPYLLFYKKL
Method in brief: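 USP1 (Δ1-66, Δ125-138, Δ229-408, Δ608-737) at 0.03 mg/mL with dye in 50 mM Tris-HCl pH 8.0, 150 mM NaCl, 2% glycerol, 1 mM DTT; compounds at 100 µM final. Tm read on real-time PCR instrument; ΔTm = Tm with compound minus Tm with DMSO.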

UWB1.289 cells = assay: Cell proliferation inhibitory activity in BRCA1/2-mutant or HRD-positive cells (Cell Titer-Glo); format: cell-based; settings: UWB1289; UWB1.289 cells, 144 hours after compound treatment, Cell Titer-Glo, 1.5 nM to 10 µM; read-out: GI50 UWB1.289 BRCA1 mut
Method: <Experimental Example 2> Evaluation of Cell Proliferation Inhibitory Activity in BRCA1/2-Mutant or HRD-Positive Cells
To evaluate the inhibitory activity of the compound according to the present invention on the proliferation of BRCA1/2 mutants or homologous recombination deficient (HRD) positive cell lines, the following experiments were performed. UWB1.289 cells were cultured in medium (50% MEBM + 50% RPMI1640), and 1,000 cells were seeded in a well plate (black clear bottom 96-well plate, Corning) 16 to 24 hours prior to compound treatment. The compounds were diluted in dimethyl sulfoxide (3-fold serial dilution starting at 10 µM, for a total of 10 concentrations) and injected at 1 µl per well, resulting a final concentration range of […] to 10 µM. Measurements of live cells were performed by a reaction in a 37 °C and CO2 incubator for 144 hours after compound treatment. The cells were incubated for 10 minutes in an incubator using Cell Titer-Glo luminescent cell-viability reagent (Promega), and luminescence intensity thereof was measured using a reader (SynergyNeo2, Biotek). GI50 values were calculated using the GraphPad Prism version 8.4.3 (GraphPad software Inc., San Diego) program.

| SMILES | ΔTm at 100 µM (recombinant USP1 protein) [°C] | GI50 (UWB1.289 cells) [µM] |
| --- | --- | --- |
| COc1ncnc(C2CC2)c1-c1ncc2cc(C(=O)N3CCN(C)CC3)n(Cc3ccc(-c4nc(C(F)(F)F)cn4C(C)C)cc3)c2n1 [Example 24, (2-(4-cyclopropyl-6-methoxypyrimid in-5-yl)-7-(4-(1-isopropyl-4-(trifluoromethyl)-1H-imidazol-2-yl)benzyl)-7H-pyrrolo[2,3-d]pyrimidin-6-yl) (4-methylpiperazi n-1-yl)methanone] | > 5 | < 0.1 |
| COc1ncnc(C2CC2)c1-c1ncc2cc(C(=O)N3CCN(C4COC4)CC3)n(Cc3ccc(-c4nc(C(F)(F)F)cn4C(C)C)cc3)c2n1 [Example 25, (2-(4-cyclopropyl-6-methoxypyrimid in-5-yl)-7-(4-(1-isopropyl-4-(trifluoromethyl)-1H-imidazol-2-yl)benzyl)-7H-pyrrolo[2,3-d]pyrimidin-6-yl) (4-(oxetan-3-yl)piperazin-1-yl)methanone] | > 5 | < 0.1 |
| CNCCN(C)C(=O)c1cc2cnc(-c3c(OC)ncnc3C3CC3)nc2n1Cc1ccc(-c2nc(C(F)(F)F)cn2C(C)C)cc1 [Example 26, 2-(4-cyclopropyl-6-methoxypyrimidin-5-yl)-7-(4-(1-isopropyl-4-(trifluoromethyl)-1H-imidazol-2-yl)benzyl)-N-methyl-N-(2-(methylamino)ethyl)-7H-pyrrolo[2,3-d]pyrimidine-6-carboxamide] | > 5 | < 0.1 |
| COc1ncnc(C2CC2)c1-c1ncc2cc(C(=O)Nc3cccc4ccccc34)n(Cc3ccc(-c4nc(C(F)(F)F)cn4C(C)C)cc3)c2n1 [Example 28, 2-(4-cyclopropyl-6-methoxypyrimidin-5-yl)-7-(4-(1-isopropyl-4-(trifluoromethyl)-1H-imidazol-2-yl)benzyl)-N-(naphthalen-1-yl)-7H-pyrrolo[2,3-d]pyrimidine-6-carboxamide] | > 5 | < 0.1 |
| COc1ncnc(C2CC2)c1-c1ncc2cc(C(=O)NCC(C)=O)n(Cc3ccc(-c4nc(C(F)(F)F)cn4C(C)C)cc3)c2n1 [Example 29, 2-(4-cyclopropyl-6-methoxypyrimidin-5-yl)-7-(4-(1-isopropyl-4-(trifluoromethyl)-1H-imidazol-2-yl)benzyl)-N-(2-oxopropyl)-7H-pyrrolo[2,3-d]pyrimidine-6-carboxamide] | > 5 | < 0.1 |
| COc1ncnc(C2CC2)c1-c1ncc2cc(C(=O)Nc3cnn(C)c3)n(Cc3ccc(-c4nc(C(F)(F)F)cn4C(C)C)cc3)c2n1 [Example 30, 2-(4-cyclopropyl-6-methoxypyrimidin-5-yl)-7-(4-(1-isopropyl-4-(trifluoromethyl)-1H-imidazol-2-yl)benzyl)-N-(1-methyl-1H-pyrazol-4-yl)-7H-pyrrolo[2,3-d]pyrimidine-6-carboxamide] | > 5 | < 0.1 |
| COc1ncnc(C2CC2)c1-c1ncc2cc(C(=O)Nc3nccs3)n(Cc3ccc(-c4nc(C(F)(F)F)cn4C(C)C)cc3)c2n1 [Example 31, 2-(4-cyclopropyl-6-methoxypyrimidin-5-yl)-7-(4-(1-isopropyl-4-(trifluoromethyl)-1H-imidazol-2-yl)benzyl)-N-(thiazol-2-yl)-7H-pyrrolo[2,3-d]pyrimidine-6-carboxamide] | > 5 | 0.1 to 0.5 |
| COc1ncnc(C2CC2)c1-c1ncc2cc(C(N)=O)n(Cc3ccc(-c4nc(C(F)(F)F)cn4C(C)C)cc3)c2n1 [Example 32, 2-(4-cyclopropyl-6-methoxypyrimidin-5-yl)-7-(4-(1-isopropyl-4-(trifluoromethyl)-1H-imidazol-2-yl)benzyl)-7H-pyrrolo[2,3-d]pyrimidine-6-carboxamide] | > 5 | < 0.1 |
| COc1ncnc(C2CC2)c1-c1ncc2cc(C(=O)NCCCN(C)C)n(Cc3ccc(-c4nc(C(F)(F)F)cn4C(C)C)cc3)c2n1 [Example 33] | > 5 | < 0.1 |
| COc1ncnc(C2CC2)c1-c1ncc2cc(C(=O)NCCC(F)(F)F)n(Cc3ccc(-c4nc(C(F)(F)F)cn4C(C)C)cc3)c2n1 [Example 34, 2-(4-cyclopropyl-6-methoxypyrimidin-5-yl)-7-(4-(1-isopropyl-4-(trifluoromethyl)-1H-imidazol-2-yl)benzyl)-N-(3,3,3-trifluoropropyl)-7H-pyrrolo[2,3-d]pyrimidine-6-carboxamide] | > 5 | 0.1 to 0.5 |
| COc1ncnc(C2CC2)c1-c1ncc2cc(C(=O)N3CC4(COC4)C3)n(Cc3ccc(-c4nc(C(F)(F)F)cn4C(C)C)cc3)c2n1 [Example 35, (2-(4-cyclopropyl-6-methoxypyrimid in-5-yl)-7-(4-(1-isopropyl-4-(trifluoromethyl)-1H-imidazol-2-yl)benzyl)-7H-pyrrolo[2,3-d]pyrimidin-6-yl) (2-oxa-6-azaspiro[3.3]heptan-6-yl)methanone] | > 5 | < 0.1 |
| COc1ncnc(C2CC2)c1-c1ncc2cc(C(=O)NC3CNC3)n(Cc3ccc(-c4nc(C(F)(F)F)cn4C(C)C)cc3)c2n1 [Example 36, N-(azetidin-3-yl)-2-(4-cyclopropyl-6-methoxypyrimidin-5-yl)-7-(4-(1-isopropyl-4-(trifluoromethyl)-1H-imidazol-2-yl)benzyl)-7H-pyrrolo[2,3-d]pyrimidine-6-carboxamide] | > 5 | 0.1 to 0.5 |
| CCCNC(=O)c1cc2cnc(-c3c(OC)ncnc3C3CC3)nc2n1Cc1ccc(-c2nc(C(F)(F)F)cn2C(C)C)cc1 [Example 37, 2-(4-cyclopropyl-6-methoxypyrimidin-5-yl)-7-(4-(1-isopropyl-4-(trifluoromethyl)-1H-imidazol-2-yl)benzyl)-N-propyl-7H-pyrrolo[2,3-d]pyrimidine-6-carboxamide] | > 5 | < 0.1 |
| COc1ncnc(C2CC2)c1-c1ncc2cc(C(=O)N(C)CCN(C)C)n(Cc3ccc(-c4nc(C(F)(F)F)cn4C(C)C)cc3)c2n1 [Example 38, 2-(4-cyclopropyl-6-methoxypyrimidin-5-yl)-N-(2-(dimethylamino)ethyl)-7-(4-(1-isopropyl-4-(trifluoromethyl)-1H-imidazol-2-yl)benzyl)-N-methyl-7H-pyrrolo [2,3-d]pyrimidine-6-carboxamide] | > 5 | < 0.1 |
| COc1ncnc(C2CC2)c1-c1ncc2cc(C(=O)N3CC[C@@H](N(C)C)C3)n(Cc3ccc(-c4nc(C(F)(F)F)cn4C(C)C)cc3)c2n1 [Example 39, (R)-(2-(4-cyclopropyl-6-methoxypyrimidin-5-yl)-7-(4-(1-isopropyl-4-(trifluoromethyl)-1H-imidazol-2-yl)benzyl)-7H-pyrrolo[2,3-d]pyrimidin-6-yl) (3-(dimethylamino)pyrrolidin-1-yl)methanone] | > 5 | 0.1 to 0.5 |
| COc1ncnc(C2CC2)c1-c1ncc2cc(C(=O)N3CC(F)(F)C3)n(Cc3ccc(-c4nc(C(F)(F)F)cn4C(C)C)cc3)c2n1 [Example 40, (2-(4-cyclopropyl-6-methoxypyrimid in-5-yl)-7-(4-(1-isopropyl-4-(trifluoromethyl)-1H-imidazol-2-yl)benzyl)-7H-pyrrolo[2,3-d]pyrimidin-6-yl) (3,3-difluoroazetid in-1-yl)methanone] | > 5 | 0.1 to 0.5 |
| COc1ncnc(C2CC2)c1-c1ncc2cc(C(=O)NC3CCNC3)n(Cc3ccc(-c4nc(C(F)(F)F)cn4C(C)C)cc3)c2n1 (stereo not drawn) [Example 41, 2-(4-cyclopropyl-6-methoxypyrimidin-5-yl)-7-(4-(1-isopropyl-4-(trifluoromethyl)-1H-imidazol-2-yl)benzyl)-N-(pyrrolidin-3-yl)-7H-pyrrolo[2,3-d]pyrimidine-6-carboxamide] | > 5 | < 0.1 |
| CCN(CC)C(=O)c1cc2cnc(-c3c(OC)ncnc3C3CC3)nc2n1Cc1ccc(-c2nc(C(F)(F)F)cn2C(C)C)cc1 [Example 42, 2-(4-cyclopropyl-6-methoxypyrimidin-5-yl)-N,N-diethyl-7-(4-(1-isopropyl-4-(trifluoromethyl)-1H-imidazol-2-yl)benzyl)-7H-pyrrolo[2,3-d]pyrimidine-6-carboxamide] | > 5 | 0.1 to 0.5 |

— EP4806898A1, “HETEROARYL DERIVATIVE COMPOUND AND USE THEREOF” (Voronoi Inc., priority 2023, dated 2025)
